In PMC10797614, “MYC-Targeting Inhibitors Generated from a Stereodiversified Bicyclic Peptide Library” (Journal of the American Chemical Society, 2024):
*1 amine or outer side, *2 acyl side, *3 side chain or, on linkers, in order; H or OH if unused. Where a SMILES comes first, the peptide text is derived from it. Bridges are numbered along the chain shown (N, C = ends). X1 = O=C([C@@H]1C[C@H](C=CCO[*:3])C[C@@H]1C=CCO[*:1])[*:2]

What was measured:
MYC = target: T1, MYC (Homo sapiens, UniProt P01106); assay: Cellular thermal shift assay (CETSA) with U87 cell lysate; assay type: binding; conditions: U87 cell lysate 1.481 mg/mL, 195 μL lysate + 19.5 μL peptide (1 mM in PBS); 50 to 65 °C for 3 min; Western blot; versus control
T1 construct: made in house; host or cells: E. coli BL21(DE3)
Procedure: To validate that NT-B2R could bind to MYC in complex biological environments, we performed cellular thermal shift assays using U87 cell lysates[34] (Figure 4A). U87 is a human glioblastoma cell line with known dependence on MYC activities.[35]−[37]
(§1) Liposome loading capacity quantification
(§2) 200 μL of the liposome solution (4 mg/mL) was dried under vacuum and extracted with 50 μL of DMSO. The obtained solution was analyzed on a reverse-phase HPLC and the corresponding peptide peak was identified by mass spectrometry. The peptide concentration was then determined by comparing the peak area to that of a standard solution. The loading capacities were calculated accordingly.
Cells were seeded in a 96-well plate at 4 k/well and incubated overnight. Afterward, the cells were washed with complete media and treated with varying concentrations of peptide-loaded liposome or empty liposome. The final media volume was 200 μL in each well. […] The 96-well plate was shaken for 15 min on an orbital mixer in dark, and the fluorescence (540 nm excitation, 590 nm emission) intensities were read by a […]
(§3) U87 cells were detached by trypsin and resuspended in 5 mL of PBS(1x). […] The protein concentrations were determined by BCA assay.
(§4) To prepare the sample for the cellular thermal shift assay, the quantified cell lysate was adjusted to a final concentration of 1.481 mg/mL with lysis buffer. […]

[1] = free peptide; liposomes therefore used as delivery vehicles
[2] = tested on: MYC transcription activity (HALLAMRK MYC TARGETS V1 gene set); assay: RNA-seq, differential expression (DESeq) and GSEA in U87 cells; assay type: cell-based, human; conditions: treated vs vehicle, p-value < 0.001, FDR 0.005
Excerpt: To test whether NT-B2R directly affected MYC activity, we performed RNA-seq on the U87 cells and evaluated the differentially expressed genes using DESeq. […] A caveat here is that a global shift of transcription activities will not be observable by this analysis, due to the embedded normalization procedure.[38] Nevertheless, gene set enrichment analysis (GSEA) results highlighted that MYC target gene sets were enriched with high statistical significance and low false discovery probabilities, supporting that MYC was NT-B2R’s main target (Figure 4G).
U87 cells were seeded in six 100x20 mm cell culture dishes at 1000 k/dish and incubated for 24h in full DMEM medium containing 10% FBS and 1% PS. […]
Total RNA of the harvested cells was extracted and purified using the RNeasy Micro Kit (QIAGEN). Following the extraction, RNA integrity and quantitation were assessed using the RNA Nano 6000 Assay Kit on the Bioanalyzer 2100 system (Agilent Technologies). […] The obtained six library samples were pooled together and sequenced on a NovaSeq 6000 (Illumina) to reach approximately 30M 150bp pair-end reads per sample.
The obtained sequencing data was preprocessed using TrimGalore, aligned using STAR, and counted using HTSeq. […]

[3] = tested on: MYC and phosphor-MYC (p-MYC, T58); assay: Western blot of MYC and phosphor-MYC levels in treated U87 cells; assay type: cell-based, human; conditions: liposome-delivered peptide
Excerpt: We then evaluated the biological effects of NT-B2R in cells.

U87 cells = assay: Cell viability test (resazurin), U87; assay type: cell-based, human; conditions: peptide-loaded DOTAP/DOPE liposomes vs empty liposomes, 48 hours, resazurin fluorescence
Procedure: as §1, §2
Cells were seeded in a 96-well plate at 4 k/well and incubated overnight. Afterward, the cells were washed with complete media and treated with varying concentrations of peptide-loaded liposome or empty liposome. The final media volume was 200 μL in each well. The cells were treated for 48 hours and then washed with fresh media to remove residue peptides or liposomes. For a single well, Resazurin (10 μg/mL in PBS) mixed with 200 μL of fresh cell media was added, and the plate was incubated at 37 °C for 3 hours. The 96-well plate was shaken for 15 min on an orbital mixer in dark, and the fluorescence (540 nm excitation, 590 nm emission) intensities were read by a […]
as §3, §4

T1 sequence (P01106 16-454): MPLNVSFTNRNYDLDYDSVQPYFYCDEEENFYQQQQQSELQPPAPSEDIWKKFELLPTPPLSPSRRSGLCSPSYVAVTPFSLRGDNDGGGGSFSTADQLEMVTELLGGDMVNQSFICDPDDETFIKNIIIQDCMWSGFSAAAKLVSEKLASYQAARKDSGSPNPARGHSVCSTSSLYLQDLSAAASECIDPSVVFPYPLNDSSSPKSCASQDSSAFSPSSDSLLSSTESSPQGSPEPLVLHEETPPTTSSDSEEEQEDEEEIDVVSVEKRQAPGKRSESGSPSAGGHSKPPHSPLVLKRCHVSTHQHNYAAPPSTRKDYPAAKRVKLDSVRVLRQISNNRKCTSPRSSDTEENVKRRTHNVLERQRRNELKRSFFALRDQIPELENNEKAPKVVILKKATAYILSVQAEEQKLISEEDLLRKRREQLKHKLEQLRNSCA

In the case of `CC(C)C[C@@H]1NC(=O)[C@H](CCCNC(=N)N)NC(=O)[C@@H]2CCCCNC(=O)[C@@H]3C[C@H](C=CCOC(=O)CC[C@@H](C(N)=O)NC1=O)C[C@@H]3C=CCOC(=O)CC[C@H](N)C(=O)N[C@@H](Cc1c[nH]c3ccccc13)C(=O)N1CCC[C@H]1C(=O)N[C@@H](Cc1c[nH]cn1)C(=O)N[C@@H](CCCNC(=N)N)C(=O)N2` [NT-B2R] (H-EWPHRKRLE-NH2; linker 1-6-9 via X1; N-terminus and C-terminus assumed), the “increase of MYC melting temperature, CETSA” value (MYC) is reported as roughly 2 °, the “cell permeability (in words)” value [1] is reported as “not cell-permeable” and the “GSEA normalized enrichment score (NES), HALLAMRK MYC TARGETS V1” value [2] is reported as −5.955. The “expression and phosphorylation levels of MYC (Western blot)” value [3] was “did not alter” and the “metabolic activity and proliferation (viability), U87” value (U87 cells) was “decreased metabolic activity and proliferation”.
